Key:
Assay type in all cases: functional
Escherichia coli = experiment: Antibacterial activity against Escherichia coli DH5[alpha] at 10 ug/disk after 24 hrs by disc diffusion assay; conditions: read-out: DIZ
Bacillus subtilis = experiment: Antibacterial activity against Bacillus subtilis assessed as diameter of zone of inhibition at 10 ug/disk after 24 hrs by disc diffusion assay; conditions: read-out: DIZ
Kocuria = experiment: Antibacterial activity against Kocuria sp. isolate Fs24 at 10 ug/disk after 24 hrs by disc diffusion assay; conditions: isolate Fs24, 24 h, read-out: DIZ
Brevundimonas = experiment: Antibacterial activity against Brevundimonas sp. isolate Fs30 at 10 ug/disk after 24 hrs by disc diffusion assay; conditions: isolate Fs30, 24 h, read-out: DIZ
Gordonia sp. = experiment: Antibacterial activity against Gordonia sp. isolate Fs48 at 10 ug/disk after 24 hrs by disc diffusion assay; conditions: Gordonia sp. (in: high G+C Gram-positive bacteria), isolate Fs48, 24 h; read-out: DIZ

| SMILES | zone of inhibition at 10 µg/disc (Escherichia coli) [mm] | zone of inhibition at 10 µg/disc (Bacillus subtilis) [mm] | zone of inhibition at 10 µg/disc (Kocuria) [mm] | zone of inhibition at 10 µg/disc (Brevundimonas) [mm] | zone of inhibition at 10 µg/disc (Gordonia sp.) [mm] |
| --- | --- | --- | --- | --- | --- |
| CN[C@@H]1[C@H](O[C@H]2[C@H](O[C@H]3[C@H](O)[C@@H](O)[C@H](N=C(N)N)[C@@H](O)[C@@H]3N=C(N)N)O[C@@H](C)[C@]2(O)C=O)O[C@@H](CO)[C@H](O)[C@H]1O [STREPTOMYCIN] | 19.7 | 14 | 26 | 29.3 | 29 |
| CC1(C)S[C@@H]2[C@H](NC(=O)[C@H](N)c3ccccc3)C(=O)N2[C@H]1C(=O)O [AMPICILLIN] | 16.7 | 17.3 | 47.7 | 10.7 | – |

From ChEMBL document CHEMBL1782021, “Synthesis of 2-aziridinyl phosphonates by modified Gabriel-Cromwell reaction and their antibacterial activities” (2011)
